Test results from US12458680B2, “Reconstitutable teverelix-TFA composition” (Antev Limited, priority 2018, dated 2025).
Square brackets hold non-standard residues; d marks the D form. Peptide text beside a SMILES is read from it. dPhe(4-Cl) = N[C@H](Cc1ccc(Cl)cc1)C(=O)O; d2Nal = N[C@H](Cc1ccc2ccccc2c1)C(=O)O; d(hCit) = NC(=O)NCCCC[C@@H](N)C(=O)O; Lys(iPr) = CC(C)NCCCC[C@H](N)C(=O)O; d3Pal = N[C@H](Cc1cccnc1)C(=O)O

Assays:
[1] = Plasma concentration of teverelix in patients versus weight; type: in vivo; settings: different patients
[2] = Injection site reaction after subcutaneous and/or intramuscular injection; type: in vivo; settings: 30-100 mg/ml, 0.4-1.6 ml

injection site reaction [2]: mild injection site reaction
Compound: CC(=O)N[C@H](Cc1ccc2ccccc2c1)C(=O)N[C@H](Cc1ccc(Cl)cc1)C(=O)N[C@H](Cc1cccnc1)C(=O)N[C@@H](CO)C(=O)N[C@@H](Cc1ccc(O)cc1)C(=O)N[C@H](CCCCNC(N)=O)C(=O)N[C@@H](CC(C)C)C(=O)N[C@@H](CCCCNC(C)C)C(=O)N1CCC[C@H]1C(=O)N[C@H](C)C(N)=O [teverelix, Ac-D-Nal-D-pClPhe-D-Pal-Ser-Tyr-D-Hci-Leu-Lys (iPr)-Pro-D-Ala-NH2] (Ac-[d2Nal][dPhe(4-Cl)][d3Pal]SY[d(hCit)]L[Lys(iPr)]P[dA]-NH2)
dependence of plasma concentration of teverelix on patients weight [1]: substantially independent of the patients weight
